Test results as given in ChEMBL document CHEMBL1201862, “PubChem BioAssay data set” (2004).
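Cultured in 96-well plates, cells were exposed to test compound for 48 hours across five concentrations. Abbreviation: GI50, concentration required for 50% inhibition of growth.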 The source made the active and inactive calls. Rule as the data show it: active = GI50 up to about 1.1 µM and inactive = higher.

Experiments:
Test in all cases: growth of human tumour cells (NCI), 48 h
[1] = tested on: SNB-19
[2] = tested on: SF-295
[3] = tested on: HL-60
[4] = tested on: EKVX
[5] = tested on: SW-620
[6] = tested on: SK-MEL-28
[7] = tested on: SF-268
[8] = tested on: U-251
[9] = tested on: SNB-75
[10] = tested on: UACC-62
[11] = tested on: SN12C
[12] = tested on: NCI-H460
[13] = tested on: CCRF-CEM
[14] = tested on: HCC 2998
[15] = tested on: CAKI-1
[16] = tested on: A549
[17] = tested on: TK-10
[18] = tested on: SR

Row | Compound | GI50 [1] | GI50 [2] | GI50 [3] | GI50 [4] | GI50 [5] | GI50 [6] | GI50 [7] | GI50 [8] | GI50 [9] | GI50 [10] | GI50 [11] | GI50 [12] | GI50 [13] | GI50 [14] | GI50 [15] | GI50 [16] | GI50 [17] | GI50 [18]
1 | O=C(CN1CCOCC1)Nc1nc(-c2ccc(Cl)cc2)cs1 | 39.1 µM (inactive) | 25.8 µM (inactive) | 17.3 µM (inactive) | 75.2 µM (inactive) | 41.8 µM (inactive) | 25.6 µM (inactive) | 25.1 µM (inactive) | 24.2 µM (inactive) | 19 µM (inactive) | 20 µM (inactive) | 34.3 µM (inactive) | 28.3 µM (inactive) | 21.3 µM (inactive) | 26.8 µM (inactive) | 34.4 µM (inactive) | 24.4 µM (inactive) | 34.4 µM (inactive) | 
2 | CSCCOC(=O)C(=[N+]=[N-])c1ccc([N+](=O)[O-])cc1 | > 100 µM (inactive) | > 100 µM (inactive) | > 100 µM (inactive) | > 100 µM (inactive) | > 100 µM (inactive) | > 100 µM (inactive) | > 100 µM (inactive) | > 100 µM (inactive) | > 100 µM (inactive) |  | > 100 µM (inactive) | > 100 µM (inactive) | > 100 µM (inactive) | > 100 µM (inactive) | > 100 µM (inactive) | > 100 µM (inactive) | > 100 µM (inactive) | > 100 µM (inactive)
3 | CN1CCN(C(=S)N(C(=O)c2ccc(Cl)cc2)c2ccccc2)CC1 | > 100 µM (inactive) | > 100 µM (inactive) | > 100 µM (inactive) |  | > 100 µM (inactive) | > 100 µM (inactive) | > 100 µM (inactive) | > 100 µM (inactive) | 41.8 µM (inactive) | > 100 µM (inactive) | > 100 µM (inactive) | > 100 µM (inactive) | > 10 µM (inactive) | > 100 µM (inactive) |  | > 100 µM (inactive) | > 100 µM (inactive) | > 100 µM (inactive)
4 | O=C(O)C12C3C4C1C1C2C3C1(Br)C41OCCO1 (configuration not stated) | > 100 µM (inactive) | > 100 µM (inactive) | > 100 µM (inactive) | > 100 µM (inactive) | > 100 µM (inactive) | > 100 µM (inactive) | > 100 µM (inactive) | > 100 µM (inactive) | > 100 µM (inactive) |  |  | > 100 µM (inactive) | > 100 µM (inactive) | > 100 µM (inactive) |  | > 100 µM (inactive) | > 100 µM (inactive) | 
5 | N#C/C(=C\c1c(Cl)cccc1Cl)c1ccccc1 | 3.66 µM (inactive) | 4.43 µM (inactive) | 3.6 µM (inactive) | 18.3 µM (inactive) | 2.74 µM (inactive) | 6.92 µM (inactive) | 18.5 µM (inactive) | 4.39 µM (inactive) | 2.97 µM (inactive) | 4.88 µM (inactive) | 9.82 µM (inactive) | 4.69 µM (inactive) | 2.88 µM (inactive) | > 39.2 µM (inactive) | 8.47 µM (inactive) | 7.8 µM (inactive) | 15.8 µM (inactive) | 2.63 µM (inactive)
6 | CCCCC(N)CSSCC(N)CCCC (configuration not stated) | 58.5 µM (inactive) | 33.3 µM (inactive) | 16.4 µM (inactive) | 25.2 µM (inactive) | 23.2 µM (inactive) | 17.7 µM (inactive) | 26.9 µM (inactive) |  | 30.6 µM (inactive) | 21.1 µM (inactive) | 19.5 µM (inactive) | 36.7 µM (inactive) | 20.3 µM (inactive) | 19 µM (inactive) |  | 52 µM (inactive) | > 100 µM (inactive) | 17.5 µM (inactive)
7 | CCCc1nc(N)nc(C(=O)Nc2cccc(C(F)(F)F)c2)c1CC | > 100 µM (inactive) | > 100 µM (inactive) | > 100 µM (inactive) | > 100 µM (inactive) | > 100 µM (inactive) | > 100 µM (inactive) | > 100 µM (inactive) | > 100 µM (inactive) | > 100 µM (inactive) | > 100 µM (inactive) | > 100 µM (inactive) | > 100 µM (inactive) |  | > 100 µM (inactive) | > 100 µM (inactive) | > 100 µM (inactive) | > 100 µM (inactive) | 
8 | CCOC(C[C@H](O[Si](C)(C)C(C)(C)C)[C@H]1COC(=S)S1)OCC | 28.8 µM (inactive) | 37.7 µM (inactive) | 29 µM (inactive) | > 100 µM (inactive) | 62.7 µM (inactive) | > 100 µM (inactive) | > 100 µM (inactive) | 40.7 µM (inactive) |  |  | 55.8 µM (inactive) | 53.6 µM (inactive) | 34.9 µM (inactive) | > 100 µM (inactive) |  | 70.5 µM (inactive) | > 100 µM (inactive) | 41.7 µM (inactive)
9 | CC(CCC(=O)O)c1ccc(Br)cc1 (configuration not stated) | > 100 µM (inactive) | > 100 µM (inactive) | > 100 µM (inactive) | > 100 µM (inactive) | > 100 µM (inactive) | > 100 µM (inactive) | > 100 µM (inactive) | > 100 µM (inactive) | > 100 µM (inactive) | > 100 µM (inactive) | > 100 µM (inactive) | > 100 µM (inactive) | > 100 µM (inactive) | > 100 µM (inactive) | > 100 µM (inactive) | > 100 µM (inactive) | > 100 µM (inactive) | > 100 µM (inactive)
10 | NCCCCNc1ccc2c(=O)[nH][nH]c(=O)c2c1 | > 100 µM (inactive) | > 100 µM (inactive) | > 100 µM (inactive) | > 100 µM (inactive) | > 100 µM (inactive) | > 100 µM (inactive) | > 100 µM (inactive) | > 100 µM (inactive) | > 100 µM (inactive) | > 100 µM (inactive) | > 100 µM (inactive) |  | > 100 µM (inactive) | > 100 µM (inactive) | > 100 µM (inactive) | > 100 µM (inactive) | > 100 µM (inactive) | > 100 µM (inactive)
11 | CCN(CC)c1oc(N(CC)CC)c(C(=O)Nc2ccccn2)c(=O)c1C(C)=O | > 100 µM (inactive) |  |  | > 100 µM (inactive) | > 100 µM (inactive) | > 100 µM (inactive) | 90.8 µM (inactive) | > 100 µM (inactive) | > 100 µM (inactive) | > 100 µM (inactive) | > 100 µM (inactive) | > 100 µM (inactive) | > 100 µM (inactive) |  | > 100 µM (inactive) | > 100 µM (inactive) | > 100 µM (inactive) | > 100 µM (inactive)
12 | NC(=S)N1N=C2c3ccccc3CC[C@H]2[C@@H]1c1cccs1 | 75.7 µM (inactive) | 15.8 µM (inactive) | 16.1 µM (inactive) | 38.4 µM (inactive) | 38.7 µM (inactive) | 44.3 µM (inactive) | 40.6 µM (inactive) | 35.3 µM (inactive) |  | 33.7 µM (inactive) | 39.3 µM (inactive) | 33 µM (inactive) | 18.8 µM (inactive) | 37.4 µM (inactive) |  | 30.1 µM (inactive) | 64.6 µM (inactive) | 4.68 µM (inactive)
13 | COc1ccc2nc(NC(=O)C(=O)C(C#N)c3ccc([N+](=O)[O-])cc3)sc2c1 (configuration not stated) | > 100 µM (inactive) | > 100 µM (inactive) |  | 31.9 µM (inactive) | > 100 µM (inactive) | > 100 µM (inactive) | > 100 µM (inactive) | > 100 µM (inactive) | > 100 µM (inactive) | 46 µM (inactive) | > 100 µM (inactive) | > 100 µM (inactive) |  | > 100 µM (inactive) | > 100 µM (inactive) | > 100 µM (inactive) | > 100 µM (inactive) | 
14 | CCCCCCCCCCCOc1ccc(C(=O)C(=O)c2ccc(OCCCCCCCCCCC)c(OCCCCCCCCCCC)c2)cc1OCCCCCCCCCCC | > 100 µM (inactive) | > 100 µM (inactive) | > 100 µM (inactive) | > 100 µM (inactive) | > 100 µM (inactive) | > 100 µM (inactive) | > 100 µM (inactive) | > 100 µM (inactive) | 31.3 µM (inactive) | > 100 µM (inactive) | > 100 µM (inactive) | > 100 µM (inactive) | > 100 µM (inactive) | > 100 µM (inactive) | > 100 µM (inactive) | > 100 µM (inactive) | > 100 µM (inactive) | 
15 | CCc1nc(N)nc(C(=O)NCCNC(=O)c2nc(N)nc(CC)c2C)c1C | > 100 µM (inactive) | > 100 µM (inactive) | > 100 µM (inactive) | > 100 µM (inactive) | > 100 µM (inactive) | > 100 µM (inactive) | > 100 µM (inactive) | > 100 µM (inactive) | > 100 µM (inactive) | > 100 µM (inactive) | > 100 µM (inactive) | > 100 µM (inactive) |  | > 100 µM (inactive) | > 100 µM (inactive) | > 100 µM (inactive) | > 100 µM (inactive) | 
16 | COc1cc(OC)c(/C=C2\N=C(C)N(Nc3nnc(NN4C(=O)/C(=C/c5c(OC)cc(OC)cc5OC)N=C4C)c4ccccc34)C2=O)c(OC)c1 | > 100 µM (inactive) | 93.3 µM (inactive) | > 100 µM (inactive) | 94.4 µM (inactive) | > 100 µM (inactive) | > 100 µM (inactive) | > 100 µM (inactive) | > 100 µM (inactive) | 42.3 µM (inactive) | > 100 µM (inactive) | > 100 µM (inactive) | > 100 µM (inactive) | > 100 µM (inactive) |  |  | > 100 µM (inactive) |  | > 100 µM (inactive)
17 | Cc1c2cc[n+](C)cc2c(C)c2c1[nH]c1ccc(Oc3ccccc3)cc12 | 0.506 µM (active) | 0.294 µM (active) |  | 3.08 µM (inactive) | 0.537 µM (active) | 2.89 µM (inactive) | 1.03 µM (active) | 0.236 µM (active) | 0.441 µM (active) | 1.43 µM (inactive) | 0.303 µM (active) |  | 1.38 µM (inactive) | 3.18 µM (inactive) | 2.12 µM (inactive) | 0.272 µM (active) |  | 
